In data set [1] the target is T1, H3R (Homo sapiens, UniProt Q9Y5N1).
T1 construct: Gifford Bioscience (contract laboratory that ran the assay)
In words: H3R competitive radioligand binding assay using [^3H]AZ13582963. As to conditions: competitive binding vs [^3H]AZ13582963; read-out: H3R K i.

In data set [2] the target is sigma-1 receptor (Homo sapiens, UniProt Q99720). In words: sigma 1 binding assay. To be noted: ratio of sigma-1 K i to H3R K i.
Data set [3] deals with T2, H3R (Rattus norvegicus, UniProt Q9QYN8).
T2 construct: The brains of SD rat were sectioned into 15 μm slices; from tissue; host or cells: SD rat brain sections
T2 sequence (Q9QYN8 whole entry): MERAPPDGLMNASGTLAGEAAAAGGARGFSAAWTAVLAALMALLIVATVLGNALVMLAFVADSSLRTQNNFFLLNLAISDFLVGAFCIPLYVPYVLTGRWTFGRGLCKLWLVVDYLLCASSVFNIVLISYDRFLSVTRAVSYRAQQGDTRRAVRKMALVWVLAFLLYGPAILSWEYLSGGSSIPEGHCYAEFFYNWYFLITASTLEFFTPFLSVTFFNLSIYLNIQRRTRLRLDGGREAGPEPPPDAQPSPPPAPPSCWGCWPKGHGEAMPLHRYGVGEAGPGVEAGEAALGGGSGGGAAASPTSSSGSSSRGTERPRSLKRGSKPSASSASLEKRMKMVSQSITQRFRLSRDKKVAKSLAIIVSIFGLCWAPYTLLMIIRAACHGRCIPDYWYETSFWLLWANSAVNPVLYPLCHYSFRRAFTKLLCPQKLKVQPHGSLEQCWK
Nature of the data set: In vitro autoradiography on rat brain sections. It counts as binding, SD rat. How it is done:
To validate the target specificity and selectivity, in vitro autoradiography experiments were conducted using [^18F]3 and [^18F]4 on rat brain sections. […] Furthermore, pretreatment with unlabeled compound 3 (10 μM) led to a signal reduction of over 90% in the brain. […] This discrepancy is likely attributable to additional off-target binding of [^18F]3, which is further supported by high uptake in the cerebellum – a region with low H3R expression. […] The high uptake in the cerebellum may be attributed to nonspecific binding to unidentified CNS targets. […] Nonetheless, the results support further in vivo PET evaluation to better understand their binding profiles and evaluate their potential for H3R imaging – particularly in regions with low sigma-1 abundance.
The ARG was measured according to previously reported methods. , The brains of SD rat were sectioned into 15 μm slices and stored in −80 °C. For each experiment, the brain slices allowed them to warm to room temperature and then incubated in Tris-HCl buffer (50 mM, containing 0.1% bovine serum albumin) for 10 min. The slices were incubated with [^18F]3 or [^18F]4 (0.037 MBq/mL) in the presence of either DMSO (baseline study), GSK189254 (10 μM, blocking study), and unlabeled 3 or 4 (10 μM, blocking study) at room temperature for 30 min. Following incubation, the brain slices were washed three times with cold Tris-HCl buffer (50 mM) for 5 min each, and then dipped in water 2 times for 5 s. The brain slices were dried under cold air and exposed to a Phosphor Screen (BAS IP MS2025, Cytiva) for 2 h. The radioactivity and imaging were captured using an Amersham Typhoon 5 (Cytiva) and the data were analyzed using ImageJ software.

The subject of data set [4] is P-glycoprotein (P-gp) and breast cancer resistance protein (BCRP). In words: PET imaging in mice pretreated with elacridar. To be noted: elacridar 3 mg/kg, 20 min prior to radioligand injection. It counts as in vivo. How it is done:
To determine whether [^18F]3 is actively effluxed by BBB transporters such as P-glycoprotein (P-gp) and breast cancer resistance protein (BCRP), we conducted additional PET scans in mice pretreated with elacridar (3 mg/kg, a dual P-gp/BCRP inhibitor) 20 min prior to radioligand injection.
Figure S4. Mice PET imaging studies (0−60 minutes) of [ 18F]3. (A) TACs of [ 18F]3 in the whole-brain under baseline and elacridar-blocking (3 mg/kg) conditions; (B) Area under curve of [ 18F]3 in the whole-brain; All data were referred to as mean ± SD, n = […]
The molar activities of [18F]3 and [18F]4 were determined using calibration curves, which were generated by plotting the concentration of the authentic standard compounds 3 or 4 against their respective flow injection analysis peak area ratios ([…]). Based on these calibration curves, the molar activities of [18F]3 and [18F]4 were calculated and reported as GBq/µmol.
Figure S5. Calibration curves of compounds 3 (A) and 4 (B). The standard curve was generated by plotting the HPLC UV signal area against concentrations of the compounds 3 or 4. Linear regression analysis was performed to determine the correlation between peak area and […]

Data set [5] can be described thus: Ex vivo whole-body biodistribution. It counts as in vivo. As to conditions: 5 min postadministration, CD1 mice. How it is done:
To further investigate the whole-body distribution of [^18F]3, ex vivo biodistribution experiments were conducted in CD1 mice at 5-, 15-, 30-, and 60 min postadministration. […] Initially, high levels of radioactivity were detected in the heart, lung, and kidney, with subsequent clearance observed in these organs over time. […] Minimal radioactivity was detected in the blood and bone at all time points throughout the study. […] These findings indicate that our tracer is relatively stable against in vivo defluorination.
A dose of 1.0 MBq of [^18F]3 in 0.1 mL saline was intravenously injected into the tail vein of CD1 mice (5–6 weeks). At various time-points (5-, 15-, 30- and 60 min) postinjection, the mice were sacrificed, and their organs were collected and weighed. The radioactivity of each organ was measured using a γ counter (PerkinElmer Wizard).

Data set [6] is described as follows: In vitro stability in serum, NHPs. It counts as in vitro ADME, nonhuman primates (NHPs). To be noted: NHP serum, 37 °C, 30, 60 and 90 min. How it is done:
(§1) To assess the stability of [^18F]3, in vitro radioactivity analyses were conducted following 30-, 60- and 90 min coincubation of the radioligand in the serum and liver microsomes from mice, nonhuman primates (NHPs), and humans (Figure ).
(§2) Serum from mice, NHPs, and humans were warmed to room temperature, 15 MBq of [^18F]3 was added to 0.4 mL of each species’ serum. The mixtures were incubated at 37 °C and 0.1 mL of mixture was transferred into 0.2 mL cold acetonitrile at 30, 60, and 90 min. The samples were vortexed for 15 s and then centrifuged at 10,000g for 5 min. The supernatant was analyzed using analytical HPLC (Agilent 1100 series HPLC system on Phenomenex Luna C-18 column (4.6 × 150 mm), mobile phase 30% CH3CN/0.1% TFA in water, flow:1 mL/min). For microsomes studies, a mixture of microsomes (0.5 mg/mL), [^18F]3 (15 MBq), 0.35 mL of PBS, 0.05 mL of NADPH regenerating system A, and 0.01 mL of NADPH regenerating system B were incubated at 37 °C. The subsequent steps followed the same procedure as described above.

Data set [7] can be described thus: In vitro stability in serum, humans. It counts as in vitro ADME. To be noted: human serum, 37 °C, 30, 60 and 90 min. How it is done:
as §1, §2

Data set [8] can be described thus: In vitro stability in liver microsomes, humans. It counts as in vitro ADME. To be noted: 90 min. How it is done:
as §1, §2

A short description of data set [9]: Ex vivo radiometabolite analysis in brain and plasma. As to conditions: CD1 mice, 30 min postinjection. The protocol:
Next, ex vivo stability in the brain and plasma of CD1 mice was analyzed by radio-HPLC (Figure ). At 30 min postinjection, the parent fraction of [^18F]3 in the brain was determined to be 96%, indicating excellent in vivo metabolic stability. In the blood, 31% of the radioactivity remained intact.
A dose of 15 MBq of [^18F]3 in 0.1 mL saline was intravenously injected into the tail vein of CD1 mice (5–6 weeks). The mice were sacrificed at 30 min postinjection, and the mice brain and blood were quickly collected and homogenized with cold acetonitrile. […] The radioactivity for each fraction was measured using a γ counter (PerkinElmer Wizard). Data analysis was performed by GraphPad Prism 8.0, and the percentage of [^18F]3 relative to total radioactivity (corrected for decay) was calculated as (peak area for [^18F]3 /total peak area) × 100%.

T1 sequence (Q9Y5N1 whole entry, species assumed): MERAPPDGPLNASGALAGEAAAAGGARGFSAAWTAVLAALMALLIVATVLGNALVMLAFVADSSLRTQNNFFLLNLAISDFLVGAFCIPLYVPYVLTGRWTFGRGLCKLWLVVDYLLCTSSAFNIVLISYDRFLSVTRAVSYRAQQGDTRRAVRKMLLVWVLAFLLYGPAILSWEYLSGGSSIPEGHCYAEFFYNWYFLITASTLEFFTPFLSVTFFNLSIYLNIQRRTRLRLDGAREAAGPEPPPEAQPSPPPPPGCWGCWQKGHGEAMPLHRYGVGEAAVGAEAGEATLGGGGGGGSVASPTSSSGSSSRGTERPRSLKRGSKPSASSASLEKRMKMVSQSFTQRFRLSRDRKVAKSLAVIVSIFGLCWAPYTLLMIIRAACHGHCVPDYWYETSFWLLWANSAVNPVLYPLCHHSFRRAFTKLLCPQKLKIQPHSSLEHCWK
Sequence of sigma-1 receptor (Q99720 whole entry, species assumed): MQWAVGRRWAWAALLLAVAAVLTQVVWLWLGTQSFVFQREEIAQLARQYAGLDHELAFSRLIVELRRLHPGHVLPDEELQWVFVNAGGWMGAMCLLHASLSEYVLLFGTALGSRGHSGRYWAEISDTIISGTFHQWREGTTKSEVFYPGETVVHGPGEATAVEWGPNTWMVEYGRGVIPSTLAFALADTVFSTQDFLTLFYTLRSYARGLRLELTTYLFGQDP

As to `O=C([C@H]1C[C@@H]1c1ccc([18F])cc1)N1CCN(C2CCCC2)CC1` [[^18F]3], the Ki in data set [1] amounted to 2.87 nM. Further, in data set [2], the “selectivity of H3R over sigma-1” value is listed as 69 fold. For the same compound, the “reduction in radioactivity across brain regions, GSK189254 blocking” value in data set [3] (GSK189254 10 μM) is 43.6–86.0%. In [3] (unlabeled 3 or 4 at 10 μM), the “signal reduction, self-blocking with unlabeled compound” value is “over 90%”. In [4], the “change of brain uptake after elacridar pretreatment” value is reported as “did not significantly change”. This compound returned a brain uptake in [5] of 10.9 %ID/g. Also, the “parent compound remaining intact in serum” value in [6] and in data set [7] was “over 95%” in each case. In [8], the “parent fraction in liver microsomes” value is listed as 95%. Further, the “parent fraction in the brain” value in data set [9] is 96%.

The record behind these values is PMC12362585, “Development and Preclinical Characterization of [^18F]H3-2406 and [^18F]H3-2407 for Positron Emission Tomography Imaging of the Histamine Subtype‑3 Receptor” (Journal of Medicinal Chemistry, 2025).
